The text below walks through data of patent US20070088050A1, “Crystals of laquinimod sodium, and process for the manufacture thereof” (priority 2005, published 2007).

Molecules are shown by their SMILES.

Data set [1] can be described thus: Insoluble matter test: sample mixed in deionized water at ambient temperature. The format is physicochemical. The conditions noted are these: 55 mg sample in 0.5 mL deionized water. The protocol: (§1) The subject invention also provides a process for making a pharmaceutical composition comprising laquinimod sodium comprising: • a) obtaining a batch of laquinimod sodium; • b) determining whether insoluble matter is present in the batch of step a) by mixing a sample from the batch in deionized water at room temperature at a ratio of at least 110 mg of sample to 1.0 ml of water, and inspecting the resulting mixture for the presence of insoluble matter; and • c) mixing the batch of step a) with at least one pharmaceutically acceptable carrier if in step b) insoluble matter is determined to be present below a predetermined amount.
as §1, with “A” for “The subject invention also provides a”, “amount. […]” for “amount.”

A short description of data set [2]: Particle size distribution by Malvern laser diffraction (Mastersizer S). The settings on record: for Particle size distribution by Malvern, d(0.1): size below which 10% by volume of the population is found; for Particle size distribution by Malvern, d(0.5): size below which 50% by volume of the population is found; for Particle size distribution by Malvern, d(0.9): size below which 90% by volume of the population is found. The format is physicochemical. The protocol:
The particle size distributions were measured by Malvern Laser Diffraction, using the Mastersizer S model. Laser diffraction relies on the fact that diffraction angle of light is inversely proportional to particle size. Properties of particles are measured and interpreted as measurements of a sphere (a sphere being the only shape that can be described by one unique number). In addition, laser diffraction calculates a particle size distribution based around volume terms, thus eliminating particle count from the determination of particle size. The Mastersizer S model measures particles using a single technique and a single range setting.
D(0.1) is the particle size, in microns, below which 10% by volume distribution of the population is found. D(0.5) is the particle size, in microns, below which 50% by volume distribution of the population is found. D(0.9) is the particle size, in microns, below which 90% by volume distribution of the population is found.

Data set [3] is described as follows: Determination of powder density (bulk density, tapped density). The format is physicochemical. The conditions noted are these: for Powder density, TD (tapped density): 1250 taps; for Powder density, BD (bulk density): loose, uncompacted powder. The protocol: As used herein, “bulk density” or “BD” refers to a density measurement of a loose, uncompacted substance, wherein the volume of the substance includes the air trapped between particles.
As used herein, “tapped density” or “TD” refers to a density measurement of a substance that has been tapped or vibrated, thus minimizing the volume of the substance by eliminating or minimizing the air trapped between particles.
Determination of Powder Density
• 1. Mix powder; • 2. Tare a 50 ml empty cylinder on a 0.01 g sensitivity balance; • 3. Transfer the powder, without compacting, to the cylinder being held at approximately a 45 degree angle to achieve an untapped apparent volume of 40 to 50 ml. • 4. Bring the cylinder containing the sample to a vertical position by a sharp move in order to level the volume for reading. • 5. Read the apparent volume (Va) to the nearest graduated unit; • 6. Weigh the cylinder with sample (the balance gives sample weight M); • 7. Calculate bulk density in g/ml according to the following equation: BD=M/Va; • 8. Perform steps 1-7 again and report the average data of duplicates. Tapped Density • 1. Put the same cylinder used to calculate Bulk Density in a Quantachrome Dual Autotap instrument; • 2. Perform 1250 taps; • 3. Read the tapped volume (Vf) to the nearest graduated unit; • 4. Calculate the tapped density in g/ml according to the following equation: TD=M/Vf; • 5. Perform steps 1-4 again and report the average data of duplicates. Determination of Particle Size

Data set [4] has as its system acute experimental autoimmune encephalomyelitis (aEAE) model. The settings on record: U.S. Pat. No. 6,077,851; cited from earlier work.
The nature of data set [5]: Solubility of laquinimod sodium in anti-solvents at room temperature (USP XXV terms). The format is physicochemical. The conditions noted are these: room temperature (20-25° C.). The text has this: The solubility terms are defined below, in accordance with the United States Pharmacopoeia XXV. [table]
Setting [6] is: listed as Laguinimod Sodium according to Example 1 (batch B).

Consider `CCN(C(=O)c1c([O-])c2c(Cl)cccc2n(C)c1=O)c1ccccc1.[Na+]`, for which the “Dissolution in deionized water” value in data set [1] is given as “did not completely dissolve”.

For `CCN(C(=O)c1c([O-])c2c(Cl)cccc2n(C)c1=O)c1ccccc1.[Na+]` [Laquinimod Sodium prepared according to Example 1 (batch A)], in data set [2], the “Particle size distribution by Malvern, d(0.1)” value worked out at 1.5 micron; the “Particle size distribution by Malvern, d(0.5)” value was 7.1 micron; the “Particle size distribution by Malvern, d(0.9)” value turned out to be 23.2 micron. In data set [3], the “Powder density, TD (tapped density)” value is on record as 0.347 g/ml and the “Powder density, BD (bulk density)” value was 0.166 g/ml.

With `CCN(C(=O)c1c([O-])c2c(Cl)cccc2n(C)c1=O)c1ccccc1.[Na+]` [Laquinimod Sodium prepared according to Example 1 (batch B)], in data set [2], the “Particle size distribution by Malvern, d(0.1)” value was 2.1 micron; the “Particle size distribution by Malvern, d(0.5)” value stood at 10.8 micron; the “Particle size distribution by Malvern, d(0.9)” value is 35.3 micron. For the same compound, in data set [2] (setting [6]), the “Particle size distribution by Malvern, d(0.1)” value is 2.1 micron; the “Particle size distribution by Malvern, d(0.5)” value is reported as 10.8 micron; the “Particle size distribution by Malvern, d(0.9)” value is 35.3 micron. Also, in data set [3], the “Powder density, TD (tapped density)” value is 0.452 g/ml and the “Powder density, BD (bulk density)” value is 0.189 g/ml.

Turning to `CCN(C(=O)c1c([O-])c2c(Cl)cccc2n(C)c1=O)c1ccccc1.[Na+]` [Laquinimod Sodium prepared according to Example 1 (batch C)], in data set [2], the “Particle size distribution by Malvern, d(0.1)” value was found to be 1.3 micron; the “Particle size distribution by Malvern, d(0.5)” value was 5.9 micron; the “Particle size distribution by Malvern, d(0.9)” value is 19.4 micron. Moreover, in data set [3], the “Powder density, TD (tapped density)” value is reported as 0.362 g/ml and the “Powder density, BD (bulk density)” value stood at 0.158 g/ml.

On to `CCN(C(=O)c1c(O)c2c(Cl)cccc2n(C)c1=O)c1ccccc1` [Laquinimod, N-ethyl-N-phenyl-1,2,-dihydro-4-hydroxy-5-chloro-1-methyl-2-oxoquinoline-3-carboxamide], for which the “Efficacy in the aEAE model” value in data set [4] was “effective”.

As to `CCN(C(=O)c1c([O-])c2c(Cl)cccc2n(C)c1=O)c1ccccc1.[Na+]` [Re-acrystallized product], in data set [2], the “Particle size distribution by Malvern, d(0.1)” value was found to be 13.3 micron; the “Particle size distribution by Malvern, d(0.5)” value is 51.1 micron; the “Particle size distribution by Malvern, d(0.9)” value was 105.1 micron. Besides, in data set [3], the “Powder density, TD (tapped density)” value came to 0.758 g/ml and the “Powder density, BD (bulk density)” value was found to be 0.498 g/ml.

`CCN(C(=O)c1c([O-])c2c(Cl)cccc2n(C)c1=O)c1ccccc1.[Na+]` [Recrystallized product (Example 14)]: in data set [2], the “Particle size distribution by Malvern, d(0.1)” value is 3.5 micron; the “Particle size distribution by Malvern, d(0.5)” value is given as 15.7 micron; the “Particle size distribution by Malvern, d(0.9)” value is given as 43.2 micron. For the same compound, in data set [3], the “Powder density, TD (tapped density)” value came to 0.429 g/ml and the “Powder density, BD (bulk density)” value came to 0.224 g/ml.

As to `CCN(C(=O)c1c([O-])c2c(Cl)cccc2n(C)c1=O)c1ccccc1.[Na+]` [Recrystallized product (Example 15)], in data set [2], the “Particle size distribution by Malvern, d(0.1)” value amounted to 6.1 micron; the “Particle size distribution by Malvern, d(0.5)” value was determined as 21.2 micron; the “Particle size distribution by Malvern, d(0.9)” value is listed as 51.8 micron.

For `CCN(C(=O)c1c([O-])c2c(Cl)cccc2n(C)c1=O)c1ccccc1.[Na+]` [Recrystallized product (Example 16)], in data set [2], the “Particle size distribution by Malvern, d(0.1)” value turned out to be 15.7 micron; the “Particle size distribution by Malvern, d(0.5)” value was 65.5 micron; the “Particle size distribution by Malvern, d(0.9)” value is reported as 156.4 micron.

As to `CCN(C(=O)c1c(O)c2c(Cl)cccc2n(C)c1=O)c1ccccc1` [laquinimod sodium], the Solubility in acetone result in data set [5] (acetone) is reported as “practically insoluble”. In data set [5] (ethanol), the Solubility in ethanol entry is “slightly soluble”. Moreover, the Solubility in isopropanol result in data set [5] (isopropanol) is “very slightly soluble”.
